The source of these data is patent US20240208932A1, “ARYLAMINO DERIVATIVE ESTROGEN RECEPTOR MODULATOR AND USE THEREOF” (XIZANG HAISCO PHARMACEUTICAL CO., LTD., priority 2021, published 2024).

Bounds are passed on as bounds.

Usually AUC(0-t) stands for the area under the concentration-time curve up to a stated or last time point. A word on the clearance: it is the rate of elimination divided by the concentration. A high value points to efficient removal. By bioavailability is commonly meant the share of a dose that reaches the circulation, judged against a reference dose that is usually intravenous. Read a high bioavailability as much systemic uptake. By IC50 is commonly meant the concentration needed to halve the response being measured.

The nature of data set [1]: Pharmacokinetic test in rats. The class given is in vivo. The settings on record: male, SD, rat, plasma; for Vd: read-out: Vdss. The method, then:
3. Pharmacokinetic Test in Rats
3.1 Experimental animals: male SD rats, about 220 g, 6-8 weeks old, 6 rats/compound, purchased from Chengdu Ddossy Experimental Animals Co., Ltd.
3.2 Experimental design: on the day of the test, 24 SD rats were randomly grouped according to their body weight; the animals were fasted with water available for 12 to 14 h one day before the administration, and were fed 4 h after the administration;
(DMA: dimethylacetamide; Solutol: Polyethylene glycol-15-hydroxystearate; Saline: Normal saline; MC: methylcellulose)
Before and after the administration, 0.15 ml of blood was taken from the orbit of the animals under isoflurane anesthesia and placed in an EDTAK2 centrifuge tube. The blood was centrifuged at 5000 rpm and 4° C. for 10 min to collect plasma. The blood collection time points for the intravenous administration group and intragastric administration group were: 0, 5 min, 15 min, 30 min, 1 h, 2 h, 4 h, 6 h, 8 h, and 24 h. Before analysis and detection, all samples were stored at −80° C., and a quantitative analysis of samples was performed using LC-MS/MS.

Data set [2] is described as follows: Pharmacokinetic test in mice. The class given is in vivo. To be noted: male, ICR, mouse, plasma; for Vd: read-out: Vdss. The protocol: 4. Pharmacokinetic Test in Mice
4.1 Experimental animals: male ICR mice, 20-25 g, 18 mice/compound. purchased from Chengdu Ddossy Experimental Animals Co., Ltd.
4.2 Experimental design: on the day of the test, 72 ICR mice were randomly grouped according to their body weights. the animals were fasted with water available for 12 to 14 h one day before the administration, and were fed 4 h after the administration;
Before and after the administration, 0.06 mL of blood was taken from the orbit of the animals under isoflurane anesthesia and placed in an EDTAK2 centrifuge tube. The blood was centrifuged at 5000 rpm and 4° C. for 10 min to collect plasma. The blood collection time points for the intravenous group and intragastric administration […] group were: 0 min, 5 min, 15 min, 30 min, 1 h, 2 h, 4 h, 6 h, 8 h, and 24 h. Before analysis and detection, all samples were stored at −80° C., and a quantitative analysis of samples was performed using LC-MS/MS.

The target of data set [3] is hERG potassium ion channel (Homo sapiens (Human), UniProt Q12809). In words: Test for hERG potassium ion channel (manual patch-clamp, CHO cells). The class given is cell-based. The settings on record: for IC50: CHO cells stably expressing hERG, whole cell patch-clamp, read-out: IC50 on hERG potassium channel current; for inhibition at 40 µM: human, CHO cells stably expressing hERG potassium channel, hERG potassium channel current, read-out: Inhibition rate at the highest concentration tested. From the text:
5. Test for hERG Potassium Ion Channel
Test platform: electrophysiological manual patch-clamp system
Cell line: Chinese hamster ovary (CHO) cell lines stably expressing hERG potassium ion channel Test method: In CHO (Chinese Hamster Ovary) cells stably expressing hERG potassium channel, whole cell patch-clamp technique was used to record hERG potassium channel current at room temperature. The glass microelectrode was made of a glass electrode blank (BF150-86-10, Sutter) by a puller. The tip resistance after filling the liquid in the electrode was about 2-5 MΩ. The glass microelectrode can be connected to the patch-clamp amplifier by inserting the glass microelectrode into an amplifier probe. The clamping voltage and data recording were controlled and recorded by the pClamp 10 software through a computer. The sampling frequency was 10 kHz, and the filtering frequency was 2 kHz. After the whole cell records were obtained, the cells were clamped at −80 mV, and the step voltage that induced the hERG potassium current (I hERG) was depolarized from −80 mV to +20 mV for 2 s, then repolarized to −50 mV, and returned to −80 mV after 1 s. This voltage stimulation was given every 10 s, and the administration process was started after the hERG potassium current was confirmed to be stable (at least 1 minute). The compound was administered for at least 1 minute at each test concentration, and at least 2 cells ([…]) were tested at each concentration.
Data processing: Data analysis processing was carried out by using pClamp 10, GraphPad Prism 5 and Excel software. The inhibition degree of hERG potassium current (peak value of hERG tail current induced at −50 mV) at different compound concentrations was calculated by the following formula:
Inhibition %=[1−(I/Io)]×100% wherein, Inhibition % represents the percentage of inhibition of hERG potassium current by the compound, and I and Io represent the amplitude of hERG potassium current after and before dosing, respectively.
IC50 for the compound was calculated using GraphPad Prism 5 software by fitting according to the following equation:
Y=Bottom+(Top−Bottom)/(1+10^((LogIC50−X)*HillSlope)) wherein, X represents the Log value of the tested concentration of the test sample, Y represents the inhibition percentage at the corresponding concentration, and Bottom and Top represent the minimum and maximum inhibition percentage, respectively.
(Block of hERG is tested as a sign of cardiac risk.)

For data set [4], the target named is CYP1A2 (Homo sapiens (Human), UniProt P05177). Briefly: CYP450 enzyme inhibition test, human liver microsomes. Type of data set: in vitro ADME. To be noted: incubation concentration 0-50/100 μM. The method, then: (§1) 6. CYP450 Enzyme Inhibition Test
Sequence of CYP1A2 (P05177 whole entry): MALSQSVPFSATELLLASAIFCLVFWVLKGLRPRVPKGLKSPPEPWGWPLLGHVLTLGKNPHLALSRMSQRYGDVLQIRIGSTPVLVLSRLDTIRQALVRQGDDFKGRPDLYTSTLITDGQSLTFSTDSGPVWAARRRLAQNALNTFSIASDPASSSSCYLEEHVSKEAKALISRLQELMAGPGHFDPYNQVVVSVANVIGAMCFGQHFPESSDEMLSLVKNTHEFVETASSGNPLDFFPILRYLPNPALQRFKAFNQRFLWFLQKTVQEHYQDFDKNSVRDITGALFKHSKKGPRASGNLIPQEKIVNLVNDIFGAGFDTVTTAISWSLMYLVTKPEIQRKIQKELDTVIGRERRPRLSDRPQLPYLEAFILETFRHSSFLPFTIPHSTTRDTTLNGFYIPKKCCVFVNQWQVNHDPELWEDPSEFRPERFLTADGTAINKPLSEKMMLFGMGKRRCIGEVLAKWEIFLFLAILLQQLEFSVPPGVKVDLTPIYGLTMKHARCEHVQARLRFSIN
(§2) The purpose of this study was to evaluate the effect of the test compound on the activity of five isoenzymes (CYP1A2, CYP2C9, CYP2C19, CYP2D6 and CYP3A4) of human liver microsomal cytochrome P450 (CYP) by using an in vitro testing system. The specific probe substrates of CYP450 isoenzymes were incubated with human liver microsomes and test compounds of different concentrations, and reduced nicotinamide adenine dinucleotide phosphate (NADPH) was added to initiate the reaction. After the completion of the reaction, the sample was treated and liquid chromatography-tandem mass spectrometry (LC-MS/MS) was used to quantitatively detect metabolites produced by specific substrates, changes in CYP enzyme activity were determined, and IC50 value was calculated to evaluate the inhibitory potential of the test compound on each CYP enzyme subtype.
In general terms: Liver microsomes are a subcellular fraction often used to study metabolism.

Data set [5] deals with CYP2C9 (Homo sapiens (Human), UniProt P11712). Described as above. The settings on record: incubation concentration 0-50/100 μM. The class given is in vitro ADME. The method, then:
as §1, §2

The target of data set [6] is CYP2D6 (Homo sapiens (Human), UniProt P10635). The description is as above. Type of data set: in vitro ADME. The settings on record: incubation concentration 0-50/100 μM. The protocol: as §1, §2
Sequence of CYP2D6 (P10635 whole entry): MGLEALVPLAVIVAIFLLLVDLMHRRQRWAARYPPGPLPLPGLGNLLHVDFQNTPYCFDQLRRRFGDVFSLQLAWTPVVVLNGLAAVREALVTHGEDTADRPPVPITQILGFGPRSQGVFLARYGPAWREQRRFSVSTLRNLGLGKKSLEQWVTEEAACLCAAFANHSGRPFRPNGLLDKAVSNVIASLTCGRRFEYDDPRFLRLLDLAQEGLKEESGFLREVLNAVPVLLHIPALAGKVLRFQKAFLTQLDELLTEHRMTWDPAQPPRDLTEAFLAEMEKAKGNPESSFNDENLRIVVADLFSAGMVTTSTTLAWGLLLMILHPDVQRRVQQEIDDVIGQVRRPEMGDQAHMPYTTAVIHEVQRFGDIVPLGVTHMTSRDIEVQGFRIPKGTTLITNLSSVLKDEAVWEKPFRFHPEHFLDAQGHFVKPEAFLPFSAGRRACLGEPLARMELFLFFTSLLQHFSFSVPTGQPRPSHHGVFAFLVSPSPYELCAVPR
Data set [7] addresses CYP3A4 (Homo sapiens (Human), UniProt P08684). The data set is described as above. The settings on record: incubation concentration 0-50/100 μM, read-out: IC50 CYP3A-M. The class given is in vitro ADME. The method, then:
as §1, §2

Sequence of CYP2C9 (P11712 whole entry): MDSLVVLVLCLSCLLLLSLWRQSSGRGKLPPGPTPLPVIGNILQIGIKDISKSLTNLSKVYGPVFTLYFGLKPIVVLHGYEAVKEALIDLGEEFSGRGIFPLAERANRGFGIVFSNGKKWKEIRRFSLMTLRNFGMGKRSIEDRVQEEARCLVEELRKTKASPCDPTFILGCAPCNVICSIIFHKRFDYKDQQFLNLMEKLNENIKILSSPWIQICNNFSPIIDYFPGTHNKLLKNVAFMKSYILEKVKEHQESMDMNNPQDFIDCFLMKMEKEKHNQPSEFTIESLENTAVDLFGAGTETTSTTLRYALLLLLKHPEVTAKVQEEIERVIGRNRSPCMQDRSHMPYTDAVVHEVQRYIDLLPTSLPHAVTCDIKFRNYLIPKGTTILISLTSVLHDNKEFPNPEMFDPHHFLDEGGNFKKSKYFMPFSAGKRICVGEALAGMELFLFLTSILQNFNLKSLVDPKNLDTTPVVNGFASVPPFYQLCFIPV
Sequence of CYP3A4 (P08684 whole entry): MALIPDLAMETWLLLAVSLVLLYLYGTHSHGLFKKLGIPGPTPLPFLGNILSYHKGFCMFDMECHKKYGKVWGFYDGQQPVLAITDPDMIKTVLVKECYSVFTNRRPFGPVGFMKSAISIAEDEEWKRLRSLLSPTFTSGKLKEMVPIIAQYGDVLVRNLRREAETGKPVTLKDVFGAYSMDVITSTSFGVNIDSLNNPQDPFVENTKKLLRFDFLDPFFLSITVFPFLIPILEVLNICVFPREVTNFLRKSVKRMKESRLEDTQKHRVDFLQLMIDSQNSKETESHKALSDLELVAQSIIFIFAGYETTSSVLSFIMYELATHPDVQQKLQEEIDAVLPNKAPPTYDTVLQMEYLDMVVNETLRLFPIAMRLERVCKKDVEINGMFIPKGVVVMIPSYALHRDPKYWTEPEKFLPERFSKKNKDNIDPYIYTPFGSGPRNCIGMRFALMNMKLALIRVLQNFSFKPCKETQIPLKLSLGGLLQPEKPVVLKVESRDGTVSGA
Sequence of hERG potassium ion channel (Q12809 whole entry): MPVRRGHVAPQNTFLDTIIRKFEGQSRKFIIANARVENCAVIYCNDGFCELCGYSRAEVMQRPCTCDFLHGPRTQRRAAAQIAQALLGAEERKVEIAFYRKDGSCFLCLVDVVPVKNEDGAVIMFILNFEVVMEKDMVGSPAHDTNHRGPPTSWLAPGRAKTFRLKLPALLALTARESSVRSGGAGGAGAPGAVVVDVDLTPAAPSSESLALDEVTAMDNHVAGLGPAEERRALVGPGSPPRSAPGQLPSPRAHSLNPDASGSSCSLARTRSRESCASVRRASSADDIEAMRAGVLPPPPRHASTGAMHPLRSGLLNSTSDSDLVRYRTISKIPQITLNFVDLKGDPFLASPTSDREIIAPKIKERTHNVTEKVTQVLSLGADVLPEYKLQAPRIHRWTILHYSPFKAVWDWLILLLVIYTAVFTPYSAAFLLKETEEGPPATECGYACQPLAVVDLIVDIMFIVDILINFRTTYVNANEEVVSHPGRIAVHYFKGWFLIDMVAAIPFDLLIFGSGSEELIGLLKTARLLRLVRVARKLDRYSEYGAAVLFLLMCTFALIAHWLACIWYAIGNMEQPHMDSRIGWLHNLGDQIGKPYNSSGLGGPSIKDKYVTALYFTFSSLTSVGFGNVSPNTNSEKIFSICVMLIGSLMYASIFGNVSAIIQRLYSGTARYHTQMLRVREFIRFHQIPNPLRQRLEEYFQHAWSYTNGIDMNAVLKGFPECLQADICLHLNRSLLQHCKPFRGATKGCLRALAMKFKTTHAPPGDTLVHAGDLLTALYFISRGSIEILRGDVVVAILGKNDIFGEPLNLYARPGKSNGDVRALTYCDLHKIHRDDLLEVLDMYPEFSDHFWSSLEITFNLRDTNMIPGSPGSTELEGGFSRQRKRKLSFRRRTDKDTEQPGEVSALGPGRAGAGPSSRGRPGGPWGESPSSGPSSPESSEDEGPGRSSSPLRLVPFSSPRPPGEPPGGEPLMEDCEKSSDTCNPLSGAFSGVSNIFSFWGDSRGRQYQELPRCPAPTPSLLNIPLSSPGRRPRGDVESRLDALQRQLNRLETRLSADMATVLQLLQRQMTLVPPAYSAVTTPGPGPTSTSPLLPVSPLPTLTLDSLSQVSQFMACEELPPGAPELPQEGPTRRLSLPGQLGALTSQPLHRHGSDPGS

Regarding `C[C@@H]1Cc2c([nH]c3ccc(F)cc23)[C@@H](c2c(F)cc(N[C@H]3CCN(CCCF)C3)cc2F)N1CC(F)(F)F` [Compound 18, (S)—N-(3,5-difluoro-4-((1R,3R)-6-fluoro-3-methyl-2-(2,2,2-trifluoroethyl)-2,3,4,9-tetrahydro-1H-pyrido[3,4-b]indol-1-yl)phenyl)-1-(3-fluoropropyl)pyrrolidin-3-amine], the AUC(0-t) in data set [1] (iv, i.v. (2.5 mg/kg)) stood at 2070 ± 294 ng·h/mL; in data set [1] (po, i.g. (10 mg/kg)) it was 4560 ± 1040 ng·h/mL; in data set [2] (iv, i.v. (5 mg/kg)), 3810 ng·h/mL; in data set [2] (po, i.g. (10 mg/kg)), 5650 ng·h/mL. For the same compound, the clearance in data set [1] (iv, i.v. (2.5 mg/kg)) is 16.9 ± 4 mL/min/kg; in data set [2] (iv, i.v. (5 mg/kg)), 15 mL/min/kg. For the same compound, the Vd amounted to 12.2 ± 1.5 L/kg in data set [1] (iv, i.v. (2.5 mg/kg)) and 18.2 L/kg in data set [2] (iv, i.v. (5 mg/kg)). Further, the bioavailability in data set [1] (po, i.g. (10 mg/kg)) is 55 ± 13%; in data set [2] (po, i.g. (10 mg/kg)), 74.3%. For the same compound, the half-inhibitory concentration (IC50) in data set [3] is 2.82 µM; in data set [4], more than 100 µM; in data set [5], 20 µM; in data set [6], 34.1 µM; in data set [7] it was 15.7 µM. In addition, the inhibition at 40 µM in data set [3] was determined as 100 ± 1.79%.

As for `C[C@@H]1Cc2c([nH]c3cc(F)ccc23)[C@@H](c2c(F)cc(N[C@H]3CCN(CCCF)C3)cc2F)N1CC(F)(F)F` [Compound 32, (S)—N-(3,5-difluoro-4-((1R,3R)-7-fluoro-3-methyl-2-(2,2,2-trifluoroethyl)-2,3,4,9-tetrahydro-1H-pyrido[3,4-b]indol-1-yl)phenyl)-1-(3-fluoropropyl)pyrrolidin-3-amine], the AUC(0-t) in data set [1] (iv, i.v. (2.5 mg/kg)) was found to be 853 ± 48 ng·h/mL; in data set [1] (po, i.g. (10 mg/kg)) it was 1970 ± 469 ng·h/mL; in data set [2] (iv, i.v. (5 mg/kg)), 3360 ng·h/mL; in data set [2] (po, i.g. (10 mg/kg)), 4410 ng·h/mL. Also, the clearance in data set [1] (iv, i.v. (2.5 mg/kg)) came out at 39.2 ± 2.8 mL/min/kg; in data set [2] (iv, i.v. (5 mg/kg)), 16.3 mL/min/kg. In addition, the Vd in data set [1] (iv, i.v. (2.5 mg/kg)) came to 31.4 ± 5.9 L/kg; in data set [2] (iv, i.v. (5 mg/kg)) it was 21.6 L/kg. For the same compound, the bioavailability in data set [1] (po, i.g. (10 mg/kg)) stood at 57.6 ± 14%; in data set [2] (po, i.g. (10 mg/kg)), 65.6%. For the same compound, the IC50 in data set [3] is 4.14 µM; in data set [4] it was more than 100 µM; in data set [5] it was 19.5 µM; in data set [6] it was 23.4 µM; in data set [7], 18.9 µM. In data set [3], the inhibition at 40 µM was 100.2 ± 0.74%.

As to `C#Cc1ccc2c3c([nH]c2c1)[C@@H](c1c(F)cc(N[C@H]2CCN(CCCF)C2)cc1F)N(CC(F)(F)F)[C@H](C)C3` [Compound 43, (S)—N-(4-((1R,3R)-7-ethynyl-3-methyl-2-(2,2,2-trifluoroethyl)-2,3,4,9-tetrahydro-1H-pyrido[3,4-b]indol-1-yl)-3,5-difluorophenyl)-1-(3-fluoropropyl)pyrrolidin-3-amine], the AUC(0-t) was 1570 ± 143 ng·h/mL in data set [1] (iv, i.v. (2.5 mg/kg)); 3200 ± 129 ng·h/mL in data set [1] (po, i.g. (10 mg/kg)); 10200 ng·h/mL in data set [2] (iv, i.v. (5 mg/kg)); 10200 ng·h/mL in data set [2] (po, i.g. (10 mg/kg)). Besides, the clearance amounted to 20.8 ± 2 mL/min/kg in data set [1] (iv, i.v. (2.5 mg/kg)) and 8.21 mL/min/kg in data set [2] (iv, i.v. (5 mg/kg)). Moreover, the Vd in data set [1] (iv, i.v. (2.5 mg/kg)) turned out to be 18.1 ± 2.1 L/kg; in data set [2] (iv, i.v. (5 mg/kg)), 16.6 L/kg. Also, the bioavailability in data set [1] (po, i.g. (10 mg/kg)) is 51 ± 2.1%; in data set [2] (po, i.g. (10 mg/kg)), 50.2%. Further, the IC50 in data set [3] is 12.3 µM; in data set [4], 41.6 µM; in data set [5], more than 42.8 µM; in data set [6] it was 21.5 µM; in data set [7], more than 12.7 µM. In addition, the inhibition at 40 µM in data set [3] was 98.28 ± 0.93%.
